This is an account of results in US12459951B2, “Compounds that interact with RAS superfamily proteins for treatment of cancers, inflammatory diseases, rasopathies, and fibrotic disease” (SHY Therapeutics, LLC, priority 2022, dated 2025).

Each structure is given as a SMILES string.

The subject of experiment [1] is Akt phosphorylation. Nature of the experiment: Akt Phosphorylation Assay (western blot), Panc-1. As to conditions: at 10 μM, * = activation. The class given is cell-based, human. The method in brief:
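Panc-1 (KRas G12D) cells were treated with compound at 10 μM final (0.3% DMSO) for 6 h at 37 °C, or with serial dilutions for IC50. Cells were either serum-starved overnight in 0.5% FBS and then stimulated with 1.5 ng/ml EGF for 15 min, or kept in 10% FBS without stimulation. Akt Ser473 phosphorylation in lysates was read by western blot.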

In experiment [2] the test system is IL6. Nature of the experiment: IL-6 Quantification Assay (ELISA), LPS-stimulated RAW 264.7. Details: inhibition: dose or concentration left out as unconfirmed. As to conditions: Mus musculus, RAW264.7; read-out: IL-6: % inh. The class given is cell-based. In general terms: An ELISA detects its analyte on a solid surface through an enzyme-linked reagent.
For experiment [3], the system named is Smad2/Smad3 phosphorylation. Nature of the experiment: Phospho-Smad2/3 Inhibition Assay (western blot), Panc-1. Format: cell-based, human. Particulars: at 10 μM, Panc-1 pancreatic cancer cell line; starred symbols = activation. The method in brief:
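Panc-1 cells (KRas G12D), starved overnight in 0.5% FBS, treated 3 h at 37° C with compound at 10 μM final (0.3% DMSO) or serial dilutions for IC50, then stimulated with 10 ng/ml TGF-b1 for 1 h. Phospho-Smad2 (Ser465/467) and phospho-Smad3 (Ser423/425) detected by western blot.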
A general note: A western blot detects proteins with antibodies after separation by electrophoresis.

Take `Cc1c(-c2ccn(C)n2)cn2nc(-c3nccn3C)nc(N)c12` [Compound 211, 5-Methyl-2-(1-methyl-1H-imidazol-2-yl)-6-(1-methyl-1H-pyrazol-3-yl)pyrrolo[2,1-f][1,2,4]triazin-4-amine]: the “% inh of Akt phosphorylation in Panc-1” value in experiment [1] is reported as “A (1-25% inhibition)”. In addition, the inhibition in experiment [2] fell in the range of 50 to 74%. In addition, the “% inh of Smad2/3 phosphorylation in Panc-1” value in experiment [3] is on record as “D (D = 76-100% inhibition)”.
For `Cc1c(-c2ccn(C)n2)cn2nc(-c3nccn3C)nc(Nc3ccc(N4CCCC4)cn3)c12` [Compound 228, 5-Methyl-2-(1-methyl-1H-imidazol-2-yl)-6-(1-methyl-1H-pyrazol-3-yl)-N-(5-(pyrrolidin-1-yl)pyridin-2-yl)pyrrolo[2,1-f][1,2,4]triazin-4-amine] the same measures were “D* (85-100% activation)”, 25 to 49% and 0 (0 = 0% inhibition).
As for `COCCNc1nc(-c2nccn2C)nn2cc(-c3cccc(OC)c3Cl)c(C)c12` [Compound 16, 6-(2-Chloro-3-methoxyphenyl)-N-(2-methoxyethyl)-5-methyl-2-(1-methyl-1H-imidazol-2-yl)pyrrolo[2,1-f][1,2,4]triazin-4-amine], the “% inh of Akt phosphorylation in Panc-1” value in experiment [1] was 0 (0% inhibition). Further, in experiment [2], the inhibition is 50 to 74%. For the same molecule, the “% inh of Smad2/3 phosphorylation in Panc-1” value in experiment [3] is 0 (0 = 0% inhibition).
For `Cc1c(-c2ccn(C)n2)cn2nc(-c3nccn3C)nc(O)c12` [Compound 172, 5-Methyl-2-(1-methyl-1H-imidazol-2-yl)-6-(1-methyl-1H-pyrazol-3-yl)pyrrolo[2,1-f][1,2,4]triazin-4-ol] the same measures were “B* (26-49% activation)”, 1 to 24% and “A (A = 1-25% inhibition)”.
For `CCNC(=O)c1c(-c2ccn(C)n2)cn2nc(-c3nccn3C)nc(Nc3cc(OC)ccn3)c12` [Compound 173, N-Ethyl-4-((4-methoxypyridin-2-yl)amino)-2-(1-methyl-1H-imidazol-2-yl)-6-(1-methyl-1H-pyrazol-3-yl)pyrrolo[2,1-f][1,2,4]triazine-5-carboxamide] the same measures were “C* (46-84% activation)”, 75 to 100% and “D* (D* = 76-100% activation)”.
Turning to `COc1ccnc(Nc2nc(-c3nccn3C)nn3cc(-c4ccn(CCN)n4)c(C)c23)c1` [Compound 187, 6-(1-(2-Aminoethyl)-1H-pyrazol-3-yl)-N-(4-methoxypyridin-2-yl)-5-methyl-2-(1-methyl-1H-imidazol-2-yl)pyrrolo[2,1-f][1,2,4]triazin-4-amine], in experiment [1], the “% inh of Akt phosphorylation in Panc-1” value was “C* (46-84% activation)”. In experiment [2], the inhibition was 50 to 74%. Moreover, in experiment [3], the “% inh of Smad2/3 phosphorylation in Panc-1” value is listed as “A* (A* = 1-25% activation)”.
Taken in the same sequence, the figures for `COc1cccc(-c2cn3nc(-c4nccn4C)nc(N[C@H]4C[C@H](OC)C4)c3c2-c2ccccc2)c1OC` [Compound 219, 6-(2,3-Dimethoxyphenyl)-N-((1r,3r)-3-methoxycyclobutyl)-2-(1-methyl-1H-imidazol-2-yl)-5-phenylpyrrolo[2,1-f][1,2,4]triazin-4-amine] were “D (85-100% inhibition)”, 75 to 100% and “D (D = 76-100% inhibition)”.
For `CO[C@H]1C[C@@H](Nc2nc(-c3nccn3C)nn3cc(-c4cccnc4)c(-c4ccccc4)c23)C1` [Compound 191, N-((1s,3s)-3-Methoxycyclobutyl)-2-(1-methyl-1H-imidazol-2-yl)-5-phenyl-6-(pyridin-3-yl)pyrrolo[2,1-f][1,2,4]triazin-4-amine] the same measures were “D* (85-100% activation)”, 50 to 74% and “A* (A* = 1-25% activation)”.
For `Cc1c(-c2ccn(C)n2)cn2nc(-c3nccn3C)nc(Nc3ccc(C(C)(C)O)cn3)c12` [Compound 241, 2-(6-((5-Methyl-2-(1-methyl-1H-imidazol-2-yl)-6-(1-methyl-1H-pyrazol-3-yl)pyrrolo[2,1-f][1,2,4]triazin-4-yl)amino)pyridin-3-yl)propan-2-ol] the same measures were “D* (85-100% activation)”, 25 to 49% and “C* (C* = 46-75% activation)”.
For `CO[C@H]1C[C@H](Nc2nc(-c3nccn3C)nn3cc(-c4ccc(CN)cc4)c(-c4ccccc4)c23)C1.Cl` [Compound 206, 6-(4-(Aminomethyl)phenyl)-N-((1r,3r)-3-methoxycyclobutyl)-2-(1-methyl-1H-imidazol-2-yl)-5-phenylpyrrolo[2,1-f][1,2,4]triazin-4-amine hydrochloride salt], the “% inh of Akt phosphorylation in Panc-1” value in experiment [1] was “C (50-84% inhibition)”. The inhibition in experiment [2] was 75 to 100%. In experiment [3], the “% inh of Smad2/3 phosphorylation in Panc-1” value is on record as “B (B = 26-45% inhibition)”.
As for `COc1ccc(Nc2nc(-c3nccn3C)nn3cc(-c4ccn(C)n4)c(C)c23)nc1` [Compound 224, N-(5-Methoxypyridin-2-yl)-5-methyl-2-(1-methyl-1H-imidazol-2-yl)-6-(1-methyl-1H-pyrazol-3-yl)pyrrolo[2,1-f][1,2,4]triazin-4-amine], the “% inh of Akt phosphorylation in Panc-1” value in experiment [1] was “D* (85-100% activation)”. Further, the inhibition in experiment [2] lay within 50 to 74%. Further, in experiment [3], the “% inh of Smad2/3 phosphorylation in Panc-1” value was 0 (0 = 0% inhibition).
In the case of `COCCNc1nc(-c2nccn2C)nn2cc(-c3cccnc3)c(-c3ccccc3)c12` [Compound 195, N-(2-Methoxyethyl)-2-(1-methyl-1H-imidazol-2-yl)-5-phenyl-6-(pyridin-3-yl)pyrrolo[2,1-f][1,2,4]triazin-4-amine], the “% inh of Akt phosphorylation in Panc-1” value in experiment [1] is given as “D* (85-100% activation)”. In addition, the inhibition in experiment [2] lay in the range of 50 to 74%. Besides, in experiment [3], the “% inh of Smad2/3 phosphorylation in Panc-1” value is “A* (A* = 1-25% activation)”.
Taken in the same sequence, the figures for `CO[C@H]1C[C@H](Nc2nc(-c3nccn3C)nn3cc(-c4cccnc4)c(-c4cccnc4)c23)C1` [Compound 171, N-((1r,3r)-3-Methoxycyclobutyl)-2-(1-methyl-1H-imidazol-2-yl)-5,6-di(pyridin-3-yl)pyrrolo[2,1-f][1,2,4]triazin-4-amine] were “B (26-49% inhibition)”, 0% and “B (B = 26-45% inhibition)”.
`COc1ccc(N(C)c2nc(-c3nccn3C)nn3cc(-c4ccn(C)n4)c(C)c23)nc1` [Compound 225, N-(5-Methoxypyridin-2-yl)-N,5-dimethyl-2-(1-methyl-1H-imidazol-2-yl)-6-(1-methyl-1H-pyrazol-3-yl)pyrrolo[2,1-f][1,2,4]triazin-4-amine]: the “% inh of Akt phosphorylation in Panc-1” value in experiment [1] is “A* (1-25% activation)”. For the same molecule, the inhibition in experiment [2] is 0%. The “% inh of Smad2/3 phosphorylation in Panc-1” value in experiment [3] is 0 (0 = 0% inhibition).
Take `COCCCS(=O)(=O)Nc1nc(-c2nccn2C)nn2cc(-c3ccccc3)c(-c3ccccc3)c12` [Compound 213, 3-Methoxy-N-(2-(1-methyl-1H-imidazol-2-yl)-5,6-diphenylpyrrolo[2,1-f][1,2,4]triazin-4-yl)propane-1-sulfonamide]: the “% inh of Akt phosphorylation in Panc-1” value in experiment [1] was “D* (85-100% activation)”. Further, in experiment [2], the inhibition is 25 to 49%. Further, the “% inh of Smad2/3 phosphorylation in Panc-1” value in experiment [3] was “B (B = 26-45% inhibition)”.
Taken in the same sequence, the figures for `Cc1c(-c2ccn(C)n2)cn2nc(-c3nccn3C)nc(Nc3ccc(OCC(F)(F)F)cn3)c12` [Compound 230, 5-Methyl-2-(1-methyl-1H-imidazol-2-yl)-6-(1-methyl-1H-pyrazol-3-yl)-N-(5-(2,2,2-trifluoroethoxy)pyridin-2-yl)pyrrolo[2,1-f][1,2,4]triazin-4-amine] were “D* (85-100% activation)”, 50 to 74% and “D (D = 76-100% inhibition)”.
